Entries after “also recorded” stand apart in the source; their conditions may differ.
How the values were obtained:
Assay type in all cases: in vivo, Swiss albino mice
mice [1] = assay: Forced swim test (FST) in mice; details: for reduction of immobility time in FST: acute, 60 min before test
Source text: The investigated compounds AZ-853 (8-(4-(4-(2-fluorophenyl)piperazin-1-yl)butyl)-1,3-dimethyl-1H-imidazo[2,1-f]purine-2,4(3H,8H)-dione and AZ-861 (1,3-dimethyl-8-(4-(4-(3-(trifluoromethyl)phenyl)piperazin-1-yl)butyl)-1H-imidazo[2,1-f]purine-2,4(3H,8H)-dione) were synthesised in the Department of Medicinal Chemistry, Faculty of Pharmacy, Jagiellonian University, and their synthesis was described earlier. AZ-853 and AZ-861 were suspended in 1% aqueous solution of Tween 80, and WAY-100635 (Sigma, Germany) was dissolved in 0.9% saline. In acute experiments, the selected compounds AZ-853 (0.156–2.5 mg/kg) and AZ-861 (0.625–2.5 mg/kg) were injected i.p. once 60 min before tests, whereas WAY-100635 (0.3 mg/kg) was administered subcutaneously (s.c.) 45 min before the test. […] In chronic experiments, AZ-853 and AZ-861 were administered i.p. once a day (between 9:00 AM and 10:00 AM) for 16 consecutive days at the minimum active doses selected from FST experiment, i.e. 0.625 and 1.25 mg/kg, respectively. All compounds were administered to mice at a volume of 10 ml/kg and to rats at a volume of 2 ml/kg. The control groups received 1% aqueous solution of Tween 80.
The experiment was carried out according to the method of Porsolt et al.. Swiss albino mice were individually placed in a glass cylinder (25 cm high; 10 cm in diameter) containing 10 cm of water maintained at 23–25°C, and were left there for 6 min. The total duration of immobility was recorded during the last 4 min of a 6-min. A mouse was regarded as immobile when it remained floating on the water, making only small movements to keep its head above it.
(§1) The Swiss albino mice were used in the experiment. AZ-853 and AZ-861 were injected once daily for 16 consecutive days. On the 1st and 15th day the administration of the compounds, 18-h spontaneous animal activity was registered (see below). FST, as described earlier, was performed on the 14th day just before the next treatment. To ensure that the effects observed in FST are not the result of increased motility of animals, on the 13th day, just before the next administration, the locomotor activity was measured as described earlier, from 2 to 6 min after test start, i.e. in the period identical to the duration of FST. Blood and organ collection was performed on the 17th day at 24 h after the last dose and fasting.

[2] = Plasma ALAT and γ-GTP activity after repeated administration; details: mice, AZ-853 0.625, AZ-861 1.25 mg/kg b.w./day
Description: as §1
Blood samples were collected from the Swiss albino mice 24 h after the last administration of the tested compounds or vehicle. To determine glucose, cholesterol and triglyceride levels in the plasma, standard enzymatic spectrophotometric tests (Biomaxima S.A. Lublin, Poland) were used. In the presence of appropriate enzyme, the substrate was converted to a colored compound. Absorbance was measured at a wavelength of 500 nm. To determine alanine aminotransferase (ALAT) or γ-glutamyl transpeptidase (γ-GTP) activities in the plasma, the standard enzymatic spectrophotometric test (Biomaxima S.A.) was used. Absorbance was measured at 340 nm (ALAT) or 405 nm (γ-GTP).

mice [3] = assay: Spontaneous activity monitoring (RFID TraffiCage, 18 h); details: for Mean counts, spontaneous activity: 0.625 mg/kg
Description: as §1
The spontaneous activity of the mice was measured on the 1st and 15th day of the treatment with a special, innovative radiofrequency identification system (RFID-system)—TraffiCage (TSE-Systems, Germany). The test was conducted according to the method described in the literature. The animals had the transmitter (RFID) subcutaneously implanted, which tracked the time they spent in different areas of the cage. The data obtained were then grouped in a special computer program.

[4] = 18-h monitoring, AZ-853 0.625, AZ-861 1.25 mg/kg b.w./day

- increase of plasma γ-GTP activity [2]: approximately 435%
- Mean counts, spontaneous activity (mice [3]; after 1st administration, 1 h after administration): 422.3 counts
- Mean counts, spontaneous activity (mice [3]; after 1st administration, 2 h after administration): 229.6 counts
- Mean counts, spontaneous activity (mice [3]; after 1st administration, 3 h after administration): 213.6 counts
- Mean counts, spontaneous activity (mice [3]; after 1st administration, 4 h after administration): 200.4 counts
- Mean counts, spontaneous activity (mice [3]; after 1st administration, 5 h after administration): 179.9 counts
- Mean counts, spontaneous activity (mice [3]; after 1st administration, 6 h after administration): 236.7 counts
- Mean counts, spontaneous activity (mice [3]; after 1st administration, 7 h after administration): 254.4 counts
- Mean counts, spontaneous activity (mice [3]; after 1st administration, 8 h after administration): 265.9 counts
- Mean counts, spontaneous activity (mice [3]; after 1st administration, 9 h after administration): 189.1 counts
- Mean counts, spontaneous activity (mice [3]; after 1st administration, 10 h after administration): 250.4 counts
- Mean counts, spontaneous activity (mice [3]; after 1st administration, 11 h after administration): 226.9 counts
- Mean counts, spontaneous activity (mice [3]; after 1st administration, 12 h after administration): 397.9 counts
- Mean counts, spontaneous activity (mice [3]; after 1st administration, 13 h after administration): 346.3 counts
- Mean counts, spontaneous activity (mice [3]; after 1st administration, 14 h after administration): 365.0 counts
- Mean counts, spontaneous activity (mice [3]; after 1st administration, 15 h after administration): 380.1 counts
- Mean counts, spontaneous activity (mice [3]; after 1st administration, 16 h after administration): 407.7 counts
- Mean counts, spontaneous activity (mice [3]; after 1st administration, 17 h after administration): 351.3 counts
- Mean counts, spontaneous activity (mice [3]; after 1st administration, 18 h after administration): 351.3 counts
- Mean counts, spontaneous activity (mice [3]; after 15th administration, 1 h after administration): 324.3 counts
- Mean counts, spontaneous activity (mice [3]; after 15th administration, 2 h after administration): 152.7 counts
- Mean counts, spontaneous activity (mice [3]; after 15th administration, 3 h after administration): 148.6 counts
- Mean counts, spontaneous activity (mice [3]; after 15th administration, 4 h after administration): 120.0 counts
- Mean counts, spontaneous activity (mice [3]; after 15th administration, 5 h after administration): 166.6 counts
- Mean counts, spontaneous activity (mice [3]; after 15th administration, 6 h after administration): 110.9 counts
- Mean counts, spontaneous activity (mice [3]; after 15th administration, 7 h after administration): 134.7 counts
- Mean counts, spontaneous activity (mice [3]; after 15th administration, 8 h after administration): 144.6 counts
- Mean counts, spontaneous activity (mice [3]; after 15th administration, 9 h after administration): 138.1 counts
- Mean counts, spontaneous activity (mice [3]; after 15th administration, 10 h after administration): 272.4 counts
- Mean counts, spontaneous activity (mice [3]; after 15th administration, 11 h after administration): 256.9 counts
- Mean counts, spontaneous activity (mice [3]; after 15th administration, 12 h after administration): 347.2 counts
- Mean counts, spontaneous activity (mice [3]; after 15th administration, 13 h after administration): 396.8 counts
- Mean counts, spontaneous activity (mice [3]; after 15th administration, 14 h after administration): 307.7 counts
- Mean counts, spontaneous activity (mice [3]; after 15th administration, 15 h after administration): 281.8 counts
- Mean counts, spontaneous activity (mice [3]; after 15th administration, 16 h after administration): 249.2 counts
- Mean counts, spontaneous activity (mice [3]; after 15th administration, 17 h after administration): 304.0 counts
- Mean counts, spontaneous activity (mice [3]; after 15th administration, 18 h after administration): 356.3 counts
Structure (SMILES): Cn1c(=O)c2c(nc3n(CCCCN4CCN(c5ccccc5F)CC4)ccn23)n(C)c1=O [AZ-853, 8-(4-(4-(2-fluorophenyl)piperazin-1-yl)butyl)-1,3-dimethyl-1H-imidazo[2,1-f]purine-2,4(3H,8H)-dione]
- reduction of immobility time in FST (mice [1]; 0.625 mg/kg i.p.): approximately 50%
- reduction of immobility time in FST (mice [1]; 1.25 mg/kg i.p.): ~58%
- reduction of immobility time in FST (mice [1]; 2.5 mg/kg i.p.): ~45%
- effect of WAY-100635 on the antidepressant-like action of the compound in FST (mice [1]; compound 1.25 mg/kg i.p. + WAY-100635 0.3 mg/kg s.c.): completely abolished
- effect on immobility time in FST after repeated administration (mice [1]; i.p. once daily for 13 consecutive days, AZ-853 0.625 mg/kg, AZ-861 1.25 mg/kg): decreased the immobility time
- plasma ALAT activity vs. control [2]: did not lead to significant changes in ALAT activity
- spontaneous activity after the 1st administration vs. control (mice [3]; [4]): increased spontaneous activity in the 1st, 7th, 12th and 13th hour
- spontaneous activity after the 15th administration vs. control (mice [3]; [4]): significant increase in activity was observed only in the 1st hour; also recorded: in the 4th, 7th and 9th hour after administration, a significant reduction in spontaneous activity

Reference: publication PMC7413516, “Antidepressant-like activity and safety profile evaluation of 1H-imidazo[2,1-f]purine-2,4(3H,8H)-dione derivatives as 5-HT1A receptor partial agonists” (PLoS ONE, 2020)
